Each structure is given as a SMILES string.

Consider 78 molecules from the METLIN SMRT retention time set (Domingo-Almenara et al. 2019).

This series can be described thus: gradient 5% acetonitrile 3 min, to 50% in 2 min, to 85% in 15 min, held 3 min, 100 µL/min. As to conditions: column: Zorbax Extend-C18 2.1 x 50 mm; eluents: water / acetonitrile, 0.1% formic acid. A digest of the protocol: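 In both positive and negative ionization mode, a quadrupole time-of-flight mass spectrometer coupled to HPLC analyzed pure standards run in mixtures of ~100 molecules. The Zorbax Extend-C18 column (2.1 × 50 mm, 1.8 μm) was operated at 100 μL/min with water and acetonitrile, each containing 0.1% formic acid. The dead volume was 40 μL and the dwell volume 900 μL. Retention time came from adduct peaks that were computationally picked and individually inspected by hand.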
`O=C(Nc1ccc(C2(C(=O)N3CCN(c4ccccn4)CC3)CCC2)cc1)C1CC1` registered an RP-LC retention time of 614 s.

Molecule `COc1ccc(N2CC(CNC(=O)Nc3c(F)cccc3F)CC2=O)cc1` (stereo not drawn) came in with an RP-LC retention time of 658 s.

`O=C1CCN(C(=O)C2CCN(C(=O)c3ccco3)CC2)CCCCCCN1` displayed an RP-LC retention time of 623 s.

`CN(C)S(=O)(=O)c1ccc2c(c1)N(CC(=O)NC1CCCC1)C(=O)C1CCCCN21` (stereo not drawn) displayed an RP-LC retention time of 856 s.

`COc1ccc(-c2nnc(NC(=O)c3ccc(S(=O)(=O)N(C)C)cc3)s2)c(OC)c1` came in with an RP-LC retention time of 808 s.

Turning to `COc1ccc(-c2nn(CCCC(=O)N3CCN(c4ccccc4)CC3)c(=O)c3noc(C)c23)cc1`, the RP-LC retention time turned out to be 922 s.

`CC1=NS(=O)(=O)N(Cc2ccccc2)C=C1C(=O)OCc1nc(-c2ccc(C)cc2)no1` had an RP-LC retention time of 1110 s.

`CN(CCNC(=O)C1CCCN(c2ncnc3c2nc2n3CCCCC2)C1)C1CCCCC1` (stereo not drawn) registered an RP-LC retention time of 612 s.

As for `CCOC(=O)c1[nH]c(C)c(CCC(=O)N2CCCC(C(=O)N3CCCCCC3)C2)c1C` (stereo not drawn), the RP-LC retention time is 800 s.

`Cc1ccc(-c2nnc(-c3nn(C)c4c3CN(S(=O)(=O)c3ccc(F)c(Cl)c3)CC4)o2)cc1` came in with an RP-LC retention time of 970 s.

Consider `Cc1ccc(NC(=O)N(C)CCc2noc(COc3cccc(C)c3)n2)cc1`, for which the RP-LC retention time came to 972 s.

`Cc1ccc(S(=O)(=O)N2CCc3c(c(-c4nnc(-c5ccc(F)cc5)o4)nn3C)C2)cc1` yielded an RP-LC retention time of 971 s.

In the case of `CN1C(=O)c2cccnc2Sc2cc(NC(=O)c3cccc(F)c3)ccc21`, the RP-LC retention time was determined as 790 s.

Consider `CCCN1C(=O)c2cc(S(=O)(=O)NC(C)c3ccccc3)ccc2Oc2cccnc21` (stereo not drawn), for which the RP-LC retention time came to 1070 s.

Regarding `Cc1ccc(S(=O)(=O)N2C(=O)CCC2C(=O)NC2CCCCCCC2)cc1` (stereo not drawn), the RP-LC retention time was found to be 1010 s.

`Cc1cc(C(=O)Nc2ccc3c(c2)OCO3)c2c(C)nn(-c3cccc(F)c3)c2n1` yielded an RP-LC retention time of 1170 s.

In turn, `COc1ccc(CCNC(=O)Cn2nc3c(Oc4ccccc4)nccn3c2=O)cc1OC` yielded an RP-LC retention time of 700 s.

`COC(=O)c1cnc2nc(C)ccc2c1Nc1cc(F)ccc1F` displayed an RP-LC retention time of 669 s.

`CCc1ccc(-c2csc(Nc3ccccn3)n2)cc1`: the RP-LC retention time was determined as 1040 s.

`CCCCNC(=O)C1CC(=O)N(c2n[nH]c3cccc(F)c23)C1` (stereo not drawn) gave an RP-LC retention time of 660 s.

Turning to `Cc1noc(C)c1S(=O)(=O)N[C@@H]1CN(Cc2ccccc2)C[C@H]1CN(C)C`, the RP-LC retention time was found to be 570 s.

For the molecule `Cc1ncsc1C1N(C2CCN(C(=O)c3ccco3)CC2)C(=O)C12CCCC2` (stereo not drawn), the RP-LC retention time worked out at 666 s.

The molecule `COc1cccc(-n2c(=O)c(C(=O)Nc3ccc(F)c(Cl)c3)c(O)c3cccnc32)c1` registered an RP-LC retention time of 1250 s.

`CCc1ccc(C2=C(C)C(N3CCCN(C(=O)COC)CC3)=NS2(=O)=O)cc1` showed an RP-LC retention time of 742 s.

With `CCc1nc(-c2csc(S(=O)(=O)N3CCC(C(=O)Nc4ccc(Cl)cc4)CC3)c2)no1`, the RP-LC retention time is 1070 s.

The molecule `CCCN1C(=O)COc2ccc(-c3csc(NC(=O)C(C)(C)C)n3)cc21` gave an RP-LC retention time of 1010 s.

In the case of `CCOC(=O)c1cnc(N2CCN(c3ccccc3F)CC2)[nH]c1=O`, the RP-LC retention time was 908 s.

As to `O=C(COc1ccccc1)Nc1nc(-c2ccc(Cl)cc2)cs1`, the RP-LC retention time turned out to be 1130 s.

The molecule `COc1cc(-c2nc(C3CC(=O)N(c4ccc(Cl)cc4)C3)no2)cc(OC)c1OC` (stereo not drawn) gave an RP-LC retention time of 993 s.

Turning to `CC1Oc2ccccc2N(Cc2nc(-c3cccc(Br)c3)no2)C1=O` (stereo not drawn), the RP-LC retention time came to 1200 s.

On to `COCCc1noc(C2CN(S(=O)(=O)Cc3ccccc3F)C2)n1`, for which the RP-LC retention time was 858 s.

The molecule `Cc1ccc(C)c(NC(=O)Cn2c(N)nc(C)cc2=O)c1` registered an RP-LC retention time of 596 s.

Regarding `Cc1ccc(NC(=O)c2cc(C)n3nc(C)cc3n2)cc1`, the RP-LC retention time was 994 s.

The molecule `CCCn1ccc2oc(C)c(C(=O)N3CCC(N4CCCCC4)CC3)c2c1=O` returned an RP-LC retention time of 590 s.

As to `CC(=O)Nc1cccc(-c2nc(-c3ccc4c(c3)oc(=O)n4C(C)C)no2)c1`, the RP-LC retention time was found to be 936 s.

`CN1CCN(c2nc(C3=C(c4c[nH]c5ccccc45)C(=O)NC3=O)c3ccccc3n2)CC1` came in with an RP-LC retention time of 674 s.

`O=C(NCc1cccnc1-c1ccc(F)cc1)c1cccs1` had an RP-LC retention time of 894 s.

`COCCN1C(=O)CCc2cc(NS(=O)(=O)c3ccc(OC)c(OC)c3)ccc21`: the RP-LC retention time was determined as 569 s.

In turn, `Cc1ccc(F)c(NC(=O)c2cnc(-c3ccc(F)cc3)nc2-c2ccncc2)c1` showed an RP-LC retention time of 954 s.

In turn, `COCCc1noc(C2CN(C(=O)C3(c4ccc(OC)cc4)CC3)C2)n1` came in with an RP-LC retention time of 738 s.

On to `Cc1cccc(NC(=O)C2CCc3nc(N4CCOCC4)ncc3C2)c1` (stereo not drawn), for which the RP-LC retention time came out at 786 s.

`Cc1ccc(-c2nc3nc(C)cc(C)n3c2Nc2ccc(C(C)C)cc2)cc1` showed an RP-LC retention time of 870 s.

In turn, `O=c1c2cc([N+](=O)[O-])ccc2nc(CN2CCN(c3ccccn3)CC2)n1-c1ccccc1F` had an RP-LC retention time of 670 s.

Regarding `CCN1CCN(C(=O)C2CCc3sc(C(=O)N4CCCCC4)cc3C2)CC1` (stereo not drawn), the RP-LC retention time was 613 s.

Consider `CC(C)c1ccc(Nc2c(-c3ccccc3O)nc3ncccn23)cc1`, for which the RP-LC retention time was determined as 800 s.

For the molecule `O=c1ccc(N2CCCN(S(=O)(=O)c3ccc(Cl)cc3)CC2)nn1-c1ccccc1`, the RP-LC retention time was 868 s.

In the case of `CCn1cc(-c2nc(C)c(C(=O)Nc3cccc(C(=O)OC)c3)s2)c2cccnc21`, the RP-LC retention time stood at 993 s.

The molecule `Cc1ccc(-c2ncc(C(=O)Nc3cccc(Br)c3)c(-c3ccncc3)n2)cc1` yielded an RP-LC retention time of 1050 s.

With `CCn1cnc(S(=O)(=O)N2CCC(C(=O)Nc3ccccc3OC)CC2)c1`, the RP-LC retention time was found to be 666 s.

Consider `O=C(c1ccc(CS(=O)c2ccc(Cl)cc2)o1)N1CCN(c2ccccn2)CC1` (stereo not drawn), for which the RP-LC retention time came to 582 s.

As for `O=C(CCc1c(-c2ccc(Br)cc2)nc2ccccn12)NCCCc1ccccc1`, the RP-LC retention time turned out to be 722 s.

In the case of `COC(=O)c1ccc(COc2cc(O)c3c(=O)cc(-c4ccccc4)oc3c2)cc1`, the RP-LC retention time came out at 1290 s.

In the case of `CC(NC(=O)C1=C2CCCN2c2ccc(F)cc2S1(=O)=O)c1ccc(F)cc1` (stereo not drawn), the RP-LC retention time worked out at 935 s.

`CCCNC(=O)Cn1cc(C(=O)Nc2ccc(C)c(C)c2)c(=O)c2ccc(C)nc21` had an RP-LC retention time of 966 s.

In the case of `COc1ccc(Cn2nnc(C(=O)NCC3CC3)c2-n2cccc2)cc1`, the RP-LC retention time came to 924 s.

Molecule `Cc1oc2ccc(NS(=O)(=O)c3ccc(F)cc3)cc2c1C(=O)O` showed an RP-LC retention time of 742 s.

`CC(=O)Nc1c(C)nn(-c2ccccc2)c1N1CCC(C(=O)NCC2COCCO2)CC1` (stereo not drawn) had an RP-LC retention time of 605 s.

Molecule `Cc1oc(-c2ccccc2)nc1Cn1ccn2nc(-c3ccc(F)cc3)cc2c1=O` showed an RP-LC retention time of 1100 s.

Consider `COc1ccc(CCC(=O)NCCCn2cccc2)cc1`, for which the RP-LC retention time stood at 757 s.

In turn, `CS(=O)(=O)c1ccccc1C(=O)Nc1c2c(nn1-c1nc3ccccc3s1)CCC2` yielded an RP-LC retention time of 1060 s.

`CC(C)N1C(=O)c2cccnc2Sc2cc(C(=O)N3CCN(C)CC3)ccc21` had an RP-LC retention time of 582 s.

For the molecule `COc1ccc(Cl)c2c(=O)c3c([nH]c12)CCN(CC(=O)Nc1cccc(C#N)c1)C3`, the RP-LC retention time came to 801 s.

In turn, `COC(=O)c1cc(S(=O)(=O)N2CCCC2C(=O)NC2CCCCCC2)cn1C` (stereo not drawn) yielded an RP-LC retention time of 881 s.

Turning to `COc1ccc2c(Sc3ccccc3)c(C(=O)N3CCN(c4ccccn4)CC3)[nH]c2c1`, the RP-LC retention time came out at 750 s.

In turn, `O=C(c1cc(C2CC2)n(CC(=O)N(Cc2ccccc2)c2ccccn2)n1)N1CCOCC1` gave an RP-LC retention time of 687 s.

With `CCc1noc(NC(C)=O)c1-c1ccc(OC)c(S(=O)(=O)N2CCCc3ccccc32)c1`, the RP-LC retention time stood at 879 s.

For the molecule `CN(C)CCNC(=O)C1CCc2sc(C(=O)N3CCCC3)cc2C1` (stereo not drawn), the RP-LC retention time worked out at 660 s.

Take `Cc1ccc2nc(CNC(=O)C3CCN(S(=O)(=O)c4ccc5c(c4)sc(=O)n5C)CC3)[nH]c2c1`: the RP-LC retention time was found to be 636 s.

As to `O=C(CCOc1ccccc1)NCc1ccccc1`, the RP-LC retention time came to 759 s.

For the molecule `CCN1C(=O)COc2cc(-c3noc(C(=O)NC4CC4)n3)ccc21`, the RP-LC retention time was 773 s.

Regarding `CC(=O)N1CCCC(C(=O)N2CCOCC2)C1` (stereo not drawn), the RP-LC retention time came out at 554 s.

In the case of `Cc1cc(C(=O)NCC2CCCO2)c2cccc(C)c2n1` (stereo not drawn), the RP-LC retention time is 616 s.

The molecule `CC(C)(Oc1ccc(Cl)cc1)C(=O)N1CCN(C(=O)C2CC2c2cccs2)CC1` (stereo not drawn) returned an RP-LC retention time of 1020 s.

With `Cc1ccc(CN2CCC(C3CCN(S(C)(=O)=O)CC3)C2)nc1` (stereo not drawn), the RP-LC retention time amounted to 580 s.

Consider `Cc1ccc(NC(=O)C(=O)NCC2(O)CCOCC2)cc1N1CCCC1=O`, for which the RP-LC retention time is 575 s.

`O=C(Nc1ccccc1)c1cn2c(n1)CCCC2`: the RP-LC retention time turned out to be 577 s.

Turning to `O=C(Nc1cccc(F)c1)N1CCN(c2ncccc2-c2nnc(C3CC3)o2)CC1`, the RP-LC retention time is 783 s.

The molecule `NC(=O)C1CCN(C(=O)Cc2cc(-c3ccco3)on2)CC1` returned an RP-LC retention time of 580 s.
